# Patent US20230286973A1, “PROTEIN SECRETION INHIBITORS” (KEZAR LIFE SCIENCES, priority 2020, published 2023)
# How the values were obtained:
# [1] = tested on: PD1-ss+10aa/Gaussia Luciferase; experiment: Dox-Induced PD1-ss-Gluc Assay; format: cell-based; conditions: 24 hr Dox induction; 293FRT/TO cells; read-out: 24 hr Dox Inducible PD1ssGluc 293FRT/TO: Mean IC50
# How it was run: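 Flp-In 293 T-REx, stable line; Tet-regulated PD1-ss+10aa fused to Gaussia luciferase; plated day prior; cpd + doxycycline in DMSO/media; 37 °C, 5% CO2.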
# [2] = tested on: TNFα-FL/Gaussia Luciferase; experiment: Dox Induced TNFα-FL-Gluc Assay; format: cell-based; conditions: for IC50: 24 hr Dox induction, 293FRT/TO cells, read-out: 24 hr Dox Inducible TNFaFLGluc 293FRT/TO: Mean IC50; for 24 hr Dox Inducible TNFaFLGluc 293FRT/TO: TNF/PD1: ratio of TNFaFLGluc IC50 to PD1ssGluc IC50
# How it was run: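 Flp-In 293 T-REx cells stably carrying doxycycline-inducible full-length TNFα (aa 1-233) fused to Gaussia luciferase. Plated the day before, then treated with compound dilutions in doxycycline-containing medium at 37° C, 5% CO2.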
# [3] = tested on: HER3-ss+4aa/Gaussia Luciferase; experiment: Dox-Induced Her3-ss-Gluc Assay; format: cell-based; conditions: 24 hr Dox induction; 293FRT/TO cells; read-out: 24 hr Dox Inducible Her3(ss + 4)Gluc 293FRT/TO: Mean IC50
# How it was run: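 Stable Flp-In 293 T-REx cells carried a doxycycline-inducible HER3 signal sequence (+4 aa) fused to Gaussia luciferase. Cells were plated the day before the assay. Compound dilutions in DMSO/media containing doxycycline were then added, and plates were incubated at 37 °C, 5% CO2.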
# [4] = tested on: IL-2-FL/Gaussia Luciferase; experiment: Dox Induced IL2-FL-Gluc Assay; format: cell-based; conditions: for IC50: 24 hr Dox induction, 293FRT/TO cells, read-out: 24 hr Dox Inducible IL2FLGluc 293FRT/TO: Mean IC50; for 24 hr Dox Inducible IL2FLGluc 293FRT/TO: IL2/PD1: ratio of IL2FLGluc IC50 to PD1ssGluc IC50
# How it was run: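 Stable Flp-In 293 T-REx cells carrying doxycycline-inducible full-length IL-2 (aa 1-153) fused to Gaussia luciferase, plated the day before assay. Compound dilutions added in medium containing doxycycline, incubated at 37 °C, 5% CO2. Undefined stereocentres mean data refer to stereoisomer mixtures.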
# [5] = tested on: multiple myeloma cell line NCI-H929; experiment: H929 Cell Viability Assay; format: cell-based, human; conditions: Homo sapiens, NCI-H929, 48 h, NCI-H929 cells, Celltiter-Glo
# How it was run: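 NCI-H929 cells in RPMI 1640 with 10% FBS were treated with compound dilutions for 48 h at 37° C, 5% CO2. Viability was read by CellTiter-Glo luminescence. Undefined stereocentres denote stereoisomer mixtures.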
# [6] = tested on: multiple myeloma cell line U266B1; experiment: U266 Cell Viability Assay; format: cell-based, human; conditions: Homo sapiens, U-266, 48 h, U266B1 cells, Celltiter-Glo
# How it was run: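 U266B1 multiple myeloma cells in RPMI 1640/10% FBS were treated with compound dilutions for 48 h at 37 °C, 5% CO2. Viability was measured by CellTiter-Glo luminescence; compounds drawn without stereochemistry were tested as stereoisomer mixtures.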
# [7] = Liver Microsome Stability Assay (rat); conditions: rat liver microsomes, with NADPH, 1.0 uM compound
# Protocol: (§1) Stability of a compound was assessed in the presence of liver microsomes from various sources—mouse, rat, monkey and human liver microsomes. 1.0 uM compound, 0.4% DMSO in 0.1 M Potassium Phosphate with 1.0 mg/mL liver microsomes, were incubated at 37° C. with or without 1 mM NADPH. The samples were quenched at 0, and 30 minutes.
# [8] = Liver Microsome Stability Assay (mouse); conditions: mouse liver microsomes, with NADPH, 1.0 uM compound
# Protocol: as §1
# [9] = Liver Microsome Stability Assay (human); conditions: human liver microsomes, with NADPH, 1.0 uM compound
# Protocol: as §1
# [10] = Liver Microsome Stability Assay (monkey); conditions: monkey liver microsomes, with NADPH, 1.0 uM compound
# Protocol: as §1
Compound,IC50 [1] [µM],IC50 [2] [µM],24 hr Dox Inducible TNFaFLGluc 293FRT/TO: TNF/PD1 [2],IC50 [3] [µM],IC50 [4] [µM],24 hr Dox Inducible IL2FLGluc 293FRT/TO: IL2/PD1 [4],EC50 [5] [µM],EC50 [6] [µM],Liver Microsome Stability (Multiple Species): Rat - % Remaining after 30 min w/NADPH [7] [%],Liver Microsome Stability (Multiple Species): Mouse - % Remaining after 30 min w/NADPH [8] [%],Liver Microsome Stability (Multiple Species): Human - % Remaining after 30 min w/NADPH [9] [%],Liver Microsome Stability (Multiple Species): Monkey - % Remaining after 30 min w/NADPH [10] [%]
"O=C(Nc1nc(/C=C/c2ccncn2)cs1)c1cccn1Cc1ccncc1 [Compound B44, (E)-1-(pyridin-4-ylmethyl)-N-(4-(2-(pyrimidin-4-yl)vinyl)thiazol-2-yl)-1H-pyrrole-2-carboxamide]",3.36,> 25,>7.44,> 25,> 25,>7.4,> 25,> 25,1.3,4.87,0.24,0.36
"CC(C)n1cnc(/C=C/c2csc(NC(=O)c3cccn3Cc3ccnc(F)c3)n2)c1 [Compound B45, (E)-1-((2-fluoropyridin-4-yl)methyl)-N-(4-(2-(1-isopropyl-1H-imidazol-4-yl)vinyl)thiazol-2-yl)-1H-pyrrole-2-carboxamide]",0.0421,> 25,>593,> 25,> 22.6,>540,19.9,> 24.2,16.3,23.2,0.1,0.19
"Cc1ocnc1/C=C/c1csc(NC(=O)c2cccn2Cc2ccnc(F)c2)n1 [Compound B47, (E)-1-((2-fluoropyridin-4-yl)methyl)-N-(4-(2-(5-methyloxazol-4-yl)vinyl)thiazol-2-yl)-1H-pyrrole-2-carboxamide]",0.0415,18.8,454,5.75,14.5,350,> 25,> 25,0.41,30.8,2.81,1.45
"Cc1ccc(/C=C/c2csc(NC(=O)c3cccn3Cc3ccncc3)n2)nc1F [Compound B48, (E)-N-(4-(2-(6-fluoro-5-methylpyridin-2-yl)vinyl)thiazol-2-yl)-1-(pyridin-4-ylmethyl)-1H-pyrrole-2-carboxamide]",0.0225,4.14,184,0.127,0.576,26,> 25,> 25,1.44,1.17,8.85,1.39
"Cc1ccc(/C=C/c2csc(NC(=O)c3cccn3Cc3ccnc(F)c3)n2)nc1F [Compound B49, (E)-N-(4-(2-(6-fluoro-5-methylpyridin-2-yl)vinyl)thiazol-2-yl)-1-((2-fluoropyridin-4-yl)methyl)-1H-pyrrole-2-carboxamide]",0.0274,2.51,91.4,0.131,1.26,46,11.2,> 19.1,4.13,12.5,1.53,1.51
"O=C(Nc1nc(/C=C/c2cn3ccccc3n2)cs1)c1cccn1Cc1ccncc1 [Compound B50, (E)-N-(4-(2-(imidazo[1,2-a]pyridin-2-yl)vinyl)thiazol-2-yl)-1-(pyridin-4-ylmethyl)-1H-pyrrole-2-carboxamide]",0.339,> 25,>73.7,11.4,> 25,>74,18.8,> 24.6,0.06,0.94,1.21,0.74
"Cc1nc(/C=C/c2csc(NC(=O)c3cccn3Cc3ccncc3)n2)cn1C [Compound B51, (E)-N-(4-(2-(1,2-dimethyl-1H-imidazol-4-yl)vinyl)thiazol-2-yl)-1-(pyridin-4-ylmethyl)-1H-pyrrole-2-carboxamide]",5.38,> 25,>4.65,> 25,> 25,>4.6,> 25,> 25,1.43,6.7,0.21,0.27
"O=C(Nc1nc(/C=C/c2ncoc2C2CCCCC2)cs1)c1cccn1Cc1ccncc1 [Compound B52, (E)-N-(4-(2-(5-cyclohexyloxazol-4-yl)vinyl)thiazol-2-yl)-1-(pyridin-4-ylmethyl)-1H-pyrrole-2-carboxamide]",0.0255,4.84,190,0.735,2.1,82,15.9,> 25,4.04,32.1,5.82,10.8
